Data taken from US8404677B2, “Kinase inhibitors” (Genosco, priority 2009, dated 2013).

Assays:
[1] = molecular target: T1, human ZAP70 (Homo sapiens, UniProt P43403); experiment: Inhibition of enzymatic kinase activity (LANCE Ulight); type: biochemical; conditions: at 1 μM concentration; read-out: ZAP70 percentage inhibition
T1 construct: Purified full-length human SYK, ZAP70, PIM1, PYK2; purchased Carna Biosciences
T1 sequence (P43403 1-619): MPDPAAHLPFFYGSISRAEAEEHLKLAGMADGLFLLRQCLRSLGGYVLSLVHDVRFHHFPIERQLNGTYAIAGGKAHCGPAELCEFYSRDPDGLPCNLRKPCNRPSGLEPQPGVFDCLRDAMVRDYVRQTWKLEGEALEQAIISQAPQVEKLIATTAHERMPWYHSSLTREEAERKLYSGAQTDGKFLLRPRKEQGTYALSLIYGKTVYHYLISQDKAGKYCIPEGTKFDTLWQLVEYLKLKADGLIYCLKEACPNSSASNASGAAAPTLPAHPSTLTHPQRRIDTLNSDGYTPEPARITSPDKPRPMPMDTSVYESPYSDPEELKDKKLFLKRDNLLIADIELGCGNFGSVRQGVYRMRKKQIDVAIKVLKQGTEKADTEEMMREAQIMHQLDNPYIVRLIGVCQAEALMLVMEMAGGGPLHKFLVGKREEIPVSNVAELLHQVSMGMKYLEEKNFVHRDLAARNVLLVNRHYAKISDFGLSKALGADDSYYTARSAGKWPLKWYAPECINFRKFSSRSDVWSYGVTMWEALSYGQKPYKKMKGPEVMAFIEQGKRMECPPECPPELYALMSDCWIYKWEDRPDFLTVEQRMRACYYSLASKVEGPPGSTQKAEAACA

[2] = molecular target: T2, truncated human FAK (Homo sapiens, UniProt Q05397); experiment: as above; type: biochemical; conditions: at 1 μM concentration; read-out: FAK percentage inhibition
T2 construct: truncated human FAK, RET, FLT3, JAK2, and LRRK2 (CARNA BIOSCIENCES™); purchased Carna Biosciences

[3] = molecular target: truncated human LRRK2 (Homo sapiens, UniProt Q5S007); experiment: as above; type: biochemical
[4] = tested on: RPMI-8226; experiment: cells; type: cell-based; conditions: RPMI-8226 (Leukemia)
[5] = tested on: NCI-H460; experiment: cells; type: cell-based; conditions: NCI-H460 (NSCLC)
[6] = tested on: COLO 205; experiment: cells; type: cell-based; conditions: COLO 205 (Colon Cancer)
[7] = tested on: SF-295; experiment: cells; type: cell-based; conditions: SF-295 (CNS Cancer)
[8] = tested on: ACHN; experiment: cells; type: cell-based; conditions: ACHN (Renal Cancer)
[9] = molecular target: PYK2 (Homo sapiens, UniProt Q14289); experiment: In vitro kinase inhibition, Ambit Biosciences panel; type: binding; design: purchased Ambit Biosciences; conditions: lower numbers indicate stronger activities
Experimental: (§1) Up to 518 different kinases have been identified in humans. They act on small molecules such as lipids, carbohydrates, amino acids, and nucleotides. To determine the scope of inhibitory effects of a representative compound of Formula (I) on known kinases, Compound 6 was tested against 104 commercially available kinases (Ambit Biosciences™) in vitro. 104 kinases included ABL1(E255K)-phosphorylated, ABL1(T315I)-phosphorylated, ABL1-phosphorylated, ACVR1B, ADCK3, AKT1, AKT2, ALK, AURKA, AURKB, AXL, BMPR2, BRAF, BRAF(V600E), BTK, CDK11, CDK2, CDK3, CDK7, CDK9, CHEK1, CSF1R, CSNK1D, CSNK1G2, DCAMKL1, DYRK1B, EGFR, EGFR(L858R), EPHA2, ERBB2, ERBB4, ERK1, FAK, FGFR2, FGFR3, FLT1, FLT3, FLT4, GSK3B, IGF1R, IKK-α, IKK-β, INSR, JAK2(JH1domain-catalytic), JAK3(JH1domain-catalytic), JNK1, JNK2, JNK3, KIT, KIT(D816V), KIT(V559D,T670I), LKB1, LRRK2, LRRK2(G2019S), MAP3K4, MAPKAPK2, MARK3, MEK1, MEK2, MET, MKNK1, MKNK2, MLK1, MTOR, p38-alpha, p38-beta, PAK1, PAK2, PAK4, PCTK1, PDGFRA, PDGFRB, PDPK1, PIK3C2B, PIK3CA, PIK3CG, PIM1, PIM2, PIM3, PKAC-alpha, PLK1, PLK3, PLK4, PRKCE, PYK2, RAFT, RET, RIOK2, ROCK2, RSK2, SNARK, SRC, SRPK3, SYK, TAK1, TGFBR1, TIE2, TRKA, TSSK1B, TYK2(JH1domain-catalytic), ULK2, VEGFR2, YANK3 and ZAP70.
(§2) Inhibition activity of Compound 6 was reported as percent control where lower numbers indicate stronger activities. […]

[10] = molecular target: SYK (Homo sapiens, UniProt P43405); experiment: as above; type: binding; design: purchased Ambit Biosciences; conditions: lower numbers indicate stronger activities
Experimental: as §1, §2

[11] = Homo sapiens, read-out: LC50 (the source's name)

PYK2, sequence (Q14289 whole entry): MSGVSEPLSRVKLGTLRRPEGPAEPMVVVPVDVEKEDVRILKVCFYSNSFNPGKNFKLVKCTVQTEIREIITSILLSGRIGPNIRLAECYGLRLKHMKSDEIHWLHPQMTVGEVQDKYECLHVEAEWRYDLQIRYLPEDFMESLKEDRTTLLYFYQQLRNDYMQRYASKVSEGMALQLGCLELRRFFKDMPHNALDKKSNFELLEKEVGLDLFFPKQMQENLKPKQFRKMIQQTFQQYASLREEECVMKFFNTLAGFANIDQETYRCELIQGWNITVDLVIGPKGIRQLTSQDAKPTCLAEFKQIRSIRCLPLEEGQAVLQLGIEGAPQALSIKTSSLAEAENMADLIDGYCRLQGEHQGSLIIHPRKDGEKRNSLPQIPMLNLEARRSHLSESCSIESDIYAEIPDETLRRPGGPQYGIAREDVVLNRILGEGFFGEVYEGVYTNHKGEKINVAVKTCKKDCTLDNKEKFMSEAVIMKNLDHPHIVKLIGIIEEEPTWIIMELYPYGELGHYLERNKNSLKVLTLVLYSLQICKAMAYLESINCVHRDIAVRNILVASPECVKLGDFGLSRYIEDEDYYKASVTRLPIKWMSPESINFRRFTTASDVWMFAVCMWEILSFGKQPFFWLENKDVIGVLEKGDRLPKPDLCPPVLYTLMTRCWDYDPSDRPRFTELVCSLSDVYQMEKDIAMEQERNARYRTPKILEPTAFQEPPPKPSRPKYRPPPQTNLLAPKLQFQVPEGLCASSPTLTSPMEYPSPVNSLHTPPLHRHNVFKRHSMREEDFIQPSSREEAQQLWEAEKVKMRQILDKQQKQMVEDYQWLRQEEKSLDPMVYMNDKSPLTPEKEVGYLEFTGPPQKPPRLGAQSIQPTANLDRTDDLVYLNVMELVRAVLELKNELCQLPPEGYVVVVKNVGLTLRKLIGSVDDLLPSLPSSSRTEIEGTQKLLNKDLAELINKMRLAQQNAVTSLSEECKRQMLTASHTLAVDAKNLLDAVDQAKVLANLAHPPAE
T2 sequence (Q05397 376-1052 limits assumed): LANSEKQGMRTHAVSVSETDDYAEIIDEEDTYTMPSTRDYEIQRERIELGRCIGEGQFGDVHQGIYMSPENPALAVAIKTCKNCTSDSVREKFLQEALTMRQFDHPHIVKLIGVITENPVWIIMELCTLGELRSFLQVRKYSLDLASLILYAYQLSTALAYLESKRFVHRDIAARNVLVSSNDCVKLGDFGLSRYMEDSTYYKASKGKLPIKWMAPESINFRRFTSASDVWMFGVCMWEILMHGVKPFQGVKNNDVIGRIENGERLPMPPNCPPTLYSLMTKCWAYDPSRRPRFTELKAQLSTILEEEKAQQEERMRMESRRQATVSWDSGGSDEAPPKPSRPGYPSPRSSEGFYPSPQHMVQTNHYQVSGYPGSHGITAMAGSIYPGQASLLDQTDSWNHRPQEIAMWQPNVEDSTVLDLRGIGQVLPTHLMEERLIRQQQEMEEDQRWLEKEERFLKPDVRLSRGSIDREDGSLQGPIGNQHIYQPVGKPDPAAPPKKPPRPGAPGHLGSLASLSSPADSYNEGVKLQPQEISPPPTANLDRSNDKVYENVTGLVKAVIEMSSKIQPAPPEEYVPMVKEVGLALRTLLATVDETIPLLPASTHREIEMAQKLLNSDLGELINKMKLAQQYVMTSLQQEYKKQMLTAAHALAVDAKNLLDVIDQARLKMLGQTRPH
truncated human LRRK2, sequence (Q5S007 1879-2138 limits assumed): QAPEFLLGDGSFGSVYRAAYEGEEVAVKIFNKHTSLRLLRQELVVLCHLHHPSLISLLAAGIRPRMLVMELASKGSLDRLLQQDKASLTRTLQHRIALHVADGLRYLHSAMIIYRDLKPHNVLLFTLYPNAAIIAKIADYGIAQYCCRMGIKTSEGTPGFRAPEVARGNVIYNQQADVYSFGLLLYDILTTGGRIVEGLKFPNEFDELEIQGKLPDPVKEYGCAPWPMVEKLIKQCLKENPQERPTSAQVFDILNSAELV

O=c1[nH]ccc2nc(N3CCC(O)CC3)nc(Nc3cccc(C(F)(F)F)c3)c12 [Compound 6, 2-(4-hydroxypiperidin-1-yl)-4-(3-(trifluoromethyl)phenylamino)pyrido[4,3-d]pyrimidine-5(6H)-one]
inhibition at 1 µM [1]: 49% | inhibition at 1 µM [2]: 78% | IC50 [3]: 54 nM | GI50 ([4]; Homo sapiens): 2950 nM | IC50 ([4]; Homo sapiens): 5.5 µM | CC50 [4, 11]: 100 µM | TGI [4]: 91.2 µM | GI50 ([5]; Homo sapiens): 1620 nM | IC50 ([5]; Homo sapiens): 2400 nM | CC50 [5, 11]: 64.6 µM | TGI [5]: 15.1 µM | TGI [6]: 14.5 µM | GI50 ([6]; Homo sapiens): 3.09 µM | IC50 ([6]; Homo sapiens): 5.25 µM | CC50 [6, 11]: 45.7 µM | GI50 ([7]; Homo sapiens): 2950 nM | IC50 ([7]; Homo sapiens): 6.76 µM | CC50 [7, 11]: 56.2 µM | TGI [7]: 7.76 µM | TGI [8]: 85.1 µM | GI50 ([8]; Homo sapiens): 708 nM | IC50 ([8]; Homo sapiens): 2240 nM | CC50 [8, 11]: 100 µM | % inhibition (reported as percent control) [9]: 32% | % inhibition (reported as percent control) [10]: 8.4%
